Tests used:
[1] = human, serum, 4383 h
[2] = human
[3] = human; remark: listed apart in the source
[4] = human, serum
[5] = human; remark: listed apart in the source
[6] = Highest frequency of moderate liver toxicity observed during clinical trials, expressed as a percentage. [column '% BIOL' in source]; conditions: human
[7] = human; remark: listed apart in the source
[8] = human; remark: listed apart in the source
[9] = human; remark: listed apart in the source
[10] = human; remark: listed apart in the source
[11] = human; remark: listed apart in the source
[12] = human; remark: listed apart in the source
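Throughout, for Hepatotoxicity (association with vascular disease): count of indexed literature references reporting vascular liver injury in humans, e.g. peliosis hepatitis, hepatic veno-occlusive disease or Budd-Chiari syndrome.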
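Throughout, for Hepatotoxicity (benign tumour): value is a count of indexed literature references citing a benign tumour confirmed by histopathology.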
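Throughout, for Hepatotoxicity (choleostasis): human cholestatic liver injury, shown by histopathology or by peak ALT or AST elevation over alkaline phosphatase ratio below 2, value counts indexed literature reports.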
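Throughout, for Hepatotoxicity (chronic liver disease): chronic liver injury confirmed by histopathology or persistently raised serum aminotransferase activity beyond 6 months, value given as the count of indexed literature references.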
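Throughout, for Hepatotoxicity (cirrhosis): value is a count of indexed literature references reporting cirrhosis confirmed by histopathology.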
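Throughout, for Hepatotoxicity (cytolytic): human cytolytic liver injury, shown by histopathology or by a ratio above 5 of peak ALT or AST elevation to alkaline phosphatase elevation, value counts indexed references.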
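Throughout, for Hepatotoxicity (granulomatous hepatitis): value is a count of indexed literature references reporting granulomatous liver disease confirmed by histopathology.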
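Throughout, for Hepatotoxicity (malignant tumour): malignant tumour confirmed by histopathology, value gives the count of indexed literature references reporting it.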
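Throughout, for Hepatotoxicity (severe hepatitis): human clinical data: severe hepatitis, meaning potentially life-threatening liver failure or clinically observed cases, the value counts how many indexed literature references report it.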
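Throughout, for Hepatotoxicity (steatosis): steatosis confirmed by histopathology, value is the count of indexed references.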

SMILES	Hepatotoxicity (chronic liver disease) [1]	Hepatotoxicity (severe hepatitis) [2]	Hepatotoxicity (cirrhosis) [3]	Hepatotoxicity (moderate) [4]	Hepatotoxicity (malignant tumour) [5]	Hepatotoxicity (moderate) [6]	Hepatotoxicity (benign tumour) [7]	Hepatotoxicity (association with vascular disease) [8]	Hepatotoxicity (granulomatous hepatitis) [9]	Hepatotoxicity (choleostasis) [10]	Hepatotoxicity (steatosis) [11]	Hepatotoxicity (cytolytic) [12]	Hepatotoxicity (severe hepatitis) ([2]; Liver)	Hepatotoxicity (moderate) ([6]; Liver)	Hepatotoxicity (granulomatous hepatitis) ([9]; Liver)	Hepatotoxicity (choleostasis) ([10]; Liver)	Hepatotoxicity (cytolytic) ([12]; Liver)
O=c1oc2ccccc2c(O)c1Cc1c(O)c2ccccc2oc1=O [DICUMAROL]	0	0	0	3	0	0%	0	0	0	0	0	0					
Nc1ccc(S(=O)(=O)Nc2ccccn2)cc1 [SULFAPYRIDINE]	0		0	0	0		0	0	0	0	0	0	0	0%			
C#CC(C)(O)CC (centres undefined) [MEPARFYNOL]	0	0	0	0	0	0%	0	0	0	1	0	0					
Oc1ncc(N(CCCl)CCCl)c(O)n1 [URACIL MUSTARD]	1		0	0	0		0	0			0		0	0%	0	0	1
C#C[C@]1(O)CC[C@H]2[C@@H]3CCC4=CC(=O)CC[C@@H]4[C@H]3CC[C@@]21CC [LEVONORGESTREL]	0		0	1	0		0	0			0		0	0.4%	0	0	0
CC(=O)NC[C@H]1CN(c2ccc(N3CCOCC3)c(F)c2)C(=O)O1 [LINEZOLID]	0	0	0	1	0	1%	0	0	0	0	0	0					
CC(C)(C(=O)O)c1ccc(C(O)CCCN2CCC(C(O)(c3ccccc3)c3ccccc3)CC2)cc1 (centres undefined) [FEXOFENADINE]	0		0	1	0		0	0			0		0	1.8%	0	0	0

Source: ChEMBL document CHEMBL3137667, “[Drug-induced liver injury; fourteenth updated edition of the bibliographic database of liver injuries and related drugs]” (Gastroenterol Clin Biol, 2004)
